The results in this text go back to patent publication US12624018B1, “Inhibitors of RIPK2 and medical uses thereof” (Odyssey Therapeutics, Inc., priority 2022, dated 2026).

Where two headings read alike, the source gives them in different places. Some results are limits rather than exact numbers.

The target of one assay is T1, RIPK2 enzyme (Homo sapiens, UniProt O43353).
T1 construct: purchased Carna 09-128
Put plainly: RIPK2 inhibition (ADP-Glo Kinase Assay). The class given is biochemical. The following applies: RIPK2 5 nM, ATP 150 μM, MBP substrate, read-out: RIPK2 IC50. A digest of the protocol: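 Swine MBP substrate; compound and 5 nM RIPK2 first mixed for 30 min at room temperature; buffer pH 7.5 HEPES 50 mM with 10 mM MgCl2, 2 mM DTT, 1 mM EGTA, Brij-35, BSA.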
On the technique in general: In ADP-Glo the light output rises with the ADP produced.

Another assay deals with human NOD2 signaling. Description: Inhibition of human NOD2 signaling in HEK-Blue-hNOD2 cells (L18-MDP stimulated, SEAP reporter). The following applies: NOD2 ligand stimulation, SEAP reporter, read-out: hNOD2 IC50. The format is cell-based. As for the experimental part: Materials: Human NOD32-expressing 1TEK293 cells, HEK-Blue™-hNOD2 cells, were developed by Invivogen (catalogue number: hkb-hnod2) using co-transfection of the human NOD2 gene and an optimized secreted embryonic alkaline phosphatase (SEAP) reporter gene into HTEK293 cells. The cell maintenance medium consisted of DMEM (Giboc, 21063-029), heat inactivated FBS, penicillin (100 U/mL), streptomycin (100 μg/mL), Normocin (100 μg/mL), Blasticidin (30 μg/mL), and Zeocin (100 μg/mL). HEK-Blue™-hNOD2 cells were transferred to assay medium consisting of DMEM (Giboc, 21063-029), heat inactivated FBS, penicillin (100 U/mL) and streptomycin (100 μg/mL) prior to stimulation. Stimulation with a NOD2 ligand, L18-MDP (Invivogen, catalogue number: tlrl-lmdp) activated NF-κB and AP-1 which induced the production of SEAP. Levels of SEAP were determined with HEK-Blue™ Detection (referred to as QUANTI-Blue solution), a cell culture medium that allows for real-time detection of SEAP. QUANTI-Blue solution was prepared by adding 1 mL of QB reagent and 1 mL of QB buffer to 98 mL of sterile H2O. Test compounds were prepared into a 10 mM DMSO solution and were serially diluted into 10 points using a 3-fold dilution in a 384 well plate using a TECAN EVO200.
Method: In a 384 well plate, 40 nL of test compound was dispensed using Echo550. HEK-Blue™-hNOD2 cells (Invivogen) were prepared into a cell suspension and 40 μL of the cell suspension (12500 cells per well) was dispensed into the 384 well plate. To activate NOD2 signaling, 40 nL of L18-MDP (final concentration of 0.5 ng/mL) was added and the plate was incubated at 37° C. in a CO2 incubator for 24 hours. After the 24-hour incubation, 5 μL of the induced HEK-Blue hNOD2 cell supernatant was transferred to a new 384-well plate, centrifuged, and 45 μL of QUANTI-Blue solution was added per well and incubated for 3 hours at 37° C. SEAP levels were measured using an Ensight at 620 nm. Percent inhibition of NOD2 signaling was determined using the following equation: (high control−test compound signal)/(High control−low control)×100. The reaction high control was determined using wells with DMSO, cells, L18-MDP, and QUANTI-Blue solution. The reaction low control was determined using wells with DMSO, cells, and QUANTI-Blue solution. 4-parametric curve fit was used to determine the test compound concentration that results in 50% reduction of L18-MDP-driven human NOD2 signaling.
Using the assay described above, inhibition of hNOD2 signaling was also evaluated for GSK 2983559 (Haile at al., J. Med. Chem. 2019, 62, 14, 6482-6494), a known RIPK2 kinase inhibitor: […]

Where [1] appears, read: Homo sapiens, HEK-Blue hNOD2, HEK-Blue-hNOD2 cells.

A word on the IC50: it is the concentration that gives 50% inhibition.

T1 sequence (O43353 1-299 limits assumed): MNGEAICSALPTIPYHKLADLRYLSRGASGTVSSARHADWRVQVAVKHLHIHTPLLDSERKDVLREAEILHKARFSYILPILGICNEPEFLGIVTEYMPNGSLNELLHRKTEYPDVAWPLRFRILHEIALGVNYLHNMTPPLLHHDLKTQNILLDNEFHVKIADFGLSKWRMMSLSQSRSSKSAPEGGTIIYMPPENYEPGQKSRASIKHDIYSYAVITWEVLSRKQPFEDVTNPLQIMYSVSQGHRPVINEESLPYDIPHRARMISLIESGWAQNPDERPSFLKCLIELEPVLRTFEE

With `Cc1c(Oc2ccnc3ccc(S(=N)(=O)C4CC4)cc23)ccc(CC(=O)Nc2cnn(C34CC(C3)C4)c2)c1F` (single isomer, unassigned) [Compound 527], the values for the IC50 at RIPK2 enzyme and in the assay on human NOD2 signaling (HEK-Blue-hNOD2 cells) were < 2.5 nM and 0.7 nM, respectively. Turning to `Cc1c(Oc2ccnc3ccc(S(=N)(=O)C4CC4)cc23)ccc(CC(=O)Nc2cnn(C34CC(C3)C4)c2)c1F` (single isomer, unassigned) [Compound 528, N-(1-(bicyclo[1.1.1]pentan-1-yl)-1H-pyrazol-4-yl)-2-(4-((6-(cyclopropanesul-fonimidoyl)quinolin-4-yl)oxy)-2-fluoro-3-methylphenyl) acetamide], the results for the IC50 on RIPK2 enzyme and in the assay on human NOD2 signaling (setting [1]) were < 2.5 nM and 0.8 nM, respectively.

In the case of `N=S(=O)(c1ccc2nccc(Oc3cc(F)c(CC(=O)Nc4cnn(C56CC(C5)C6)c4)cc3Cl)c2c1)C1CC1` (single isomer, unassigned) [Compound 531, N-(1-(bicyclo[1.1.1]pentan-1-yl)-1H-pyrazol-4-yl)-2-(5-chloro-4-((6-(cyclopropanesul-fonimidoyl)quinolin-4-yl)oxy)-2-fluorophenyl) acetamide], the IC50 was < 2.5 nM on RIPK2 enzyme and 41.6 nM in the assay with human NOD2 signaling (HEK-Blue-hNOD2 cells).

Take `N=S(=O)(c1ccc2nccc(Oc3cc(F)c(CC(=O)Nc4cnn(C56CC(C5)C6)c4)cc3Cl)c2c1)C1CC1` (single isomer, unassigned) [Compound 532, N-(1-(bicyclo[1.1.1]pentan-1-yl)-1H-pyrazol-4-yl)-2-(5-chloro-4-((6-(cyclopropanesul-fonimidoyl)quinolin-4-yl)oxy)-2-fluorophenyl) acetamide]: the IC50 at RIPK2 enzyme is < 2.5 nM; in the assay on human NOD2 signaling (HEK-Blue-hNOD2 cells) it was 16.9 nM. Consider `CC(C)(C)n1cc(NC(=O)Cc2cc(Cl)c(Oc3ccnc4ccc(S(=N)(=O)C5CC5)cc34)cc2F)cn1` (single isomer, unassigned) [Compound 533, N-(1-(tert-butyl)-1H-pyrazol-4-yl)-2-(5-chloro-4-((6-(cyclopropanesul-fonimidoyl)quinolin-4-yl)oxy)-2-fluorophenyl) acetamide], for which the results for the IC50 at RIPK2 enzyme and in the assay on human NOD2 signaling (setting [1]) were < 2.5 nM and 10.4 nM, respectively. On to `CC(C)(C)n1cc(NC(=O)Cc2cc(Cl)c(Oc3ccnc4ccc(S(=N)(=O)C5CC5)cc34)cc2F)cn1` (single isomer, unassigned) [Compound 534, N-(1-(tert-butyl)-1H-pyrazol-4-yl)-2-(5-chloro-4-((6-(cyclopropanesulfonimidoyl)quinolin-4-yl)oxy)-2-fluorophenyl) acetamide], for which the IC50 is < 2.5 nM on RIPK2 enzyme and 6 nM in the assay on human NOD2 signaling (HEK-Blue-hNOD2 cells).

On to `CCS(=N)(=O)c1ccc2nccc(Oc3ccc(CC(=O)Nc4cnn(C(C)(C)C)c4)c(F)c3C)c2c1` (single isomer, unassigned) [Compound 535, N-(1-(tert-butyl)-1H-pyrazol-4-yl)-2-(4-((6-(ethylsulfonimidoyl)quinolin-4-yl)oxy)-2-fluoro-3-methylphenyl) acetamide], for which the IC50 on RIPK2 enzyme is < 2.5 nM; in the assay with human NOD2 signaling (setting [1]), 0.8 nM. On to `CCS(=N)(=O)c1ccc2nccc(Oc3ccc(CC(=O)Nc4cnn(C(C)(C)C)c4)c(F)c3C)c2c1` (single isomer, unassigned) [Compound 536, N-(1-(tert-butyl)-1H-pyrazol-4-yl)-2-(4-((6-(ethylsulfonimi-doyl)quinolin-4-yl)oxy)-2-fluoro-3-methylphenyl) acetamide], for which the IC50 was < 2.5 nM on RIPK2 enzyme and 0.7 nM in the assay with human NOD2 signaling (HEK-Blue-hNOD2 cells).

For the molecule `Cc1c(Oc2ccnc3ccc(S(=N)(=O)C(C)C)cc23)ccc(CC(=O)Nc2cnn(C(C)(C)C)c2)c1F` (single isomer, unassigned) [Compound 537, N-(1-(tert-butyl)-1H-pyrazol-4-yl)-2-(2-fluoro-3-methyl-4-((6-(propan-2-ylsulfonimidoyl)quinolin-4-yl)oxy)phenyl) acetamide], the IC50 was < 2.5 nM at RIPK2 enzyme and 0.4 nM with human NOD2 signaling (setting [1]). Consider `Cc1c(Oc2ccnc3ccc(S(=N)(=O)C(C)C)cc23)ccc(CC(=O)Nc2cnn(C(C)(C)C)c2)c1F` (single isomer, unassigned) [Compound 538, N-(1-(tert-butyl)-1H-pyrazol-4-yl)-2-(2-fluoro-3-methyl-4-((6-(propan-2-ylsulfonimidoyl)quinolin-4-yl)oxy)phenyl) acetamide], for which the IC50 is < 2.5 nM at RIPK2 enzyme and 0.2 nM in the assay on human NOD2 signaling (HEK-Blue-hNOD2 cells).

As to `Cc1c(Oc2ccnc3ccc(S(=N)(=O)C(C)(C)C)cc23)ccc(CC(=O)Nc2cnn(C(C)(C)C)c2)c1F` (single isomer, unassigned) [Compound 539, N-(1-(tert-butyl)-1H-pyrazol-4-yl)-2-(2-fluoro-3-methyl-4-((6-(2-methylpropan-2-ylsulfonimidoyl)quinolin-4-yl)oxy)phenyl) acetamide], the IC50 on RIPK2 enzyme is < 2.5 nM; in the assay on human NOD2 signaling (HEK-Blue-hNOD2 cells), 1.2 nM. Turning to `Cc1c(Oc2ccnc3ccc(S(=N)(=O)C(C)(C)C)cc23)ccc(CC(=O)Nc2cnn(C(C)(C)C)c2)c1F` (single isomer, unassigned) [Compound 540, N-(1-(tert-butyl)-1H-pyrazol-4-yl)-2-(2-fluoro-3-methyl-4-((6-(2-methylpropan-2-ylsulfonimidoyl)quinolin-4-yl)oxy)phenyl) acetamide], the IC50 was < 2.5 nM on RIPK2 enzyme and 0.5 nM in the assay on human NOD2 signaling (HEK-Blue-hNOD2 cells).

Regarding `Cc1c(Oc2ccnc3ccc(S(=N)(=O)C4CCC4)cc23)ccc(CC(=O)Nc2cnn(C(C)(C)C)c2)c1F` (single isomer, unassigned) [Compound 541, N-(1-(tert-butyl)-1H-pyrazol-4-yl)-2-(4-((6-(cyclobutanesulf-onimidoyl)quinolin-4-yl)oxy)-2-fluoro-3-methylphenyl) acetamide], the IC50 on RIPK2 enzyme was < 2.5 nM; with human NOD2 signaling (setting [1]) it was 0.3 nM. As for `Cc1cc(CC(=O)Nc2cnn(C(C)(C)C)c2)c(F)cc1Oc1ccnc2ccc(C(=O)NC(C)C)cc12` [Compound 455, 4-(4-(2-((1-(tert-butyl)-1H-pyrazol-4-yl)amino)-2-oxoethyl)-5-fluoro-2-methylphenoxy)-N-isopropylquinoline-6-carboxamide], the IC50 on RIPK2 enzyme was < 2.5 nM. On the same count and under the same terms, to `Cc1cc(CC(=O)Nc2cnn(C(C)(C)C)c2)c(F)cc1Oc1ccnc2ccc(C(=O)NC(C)(C)C)cc12` [Compound 456, N-(tert-butyl)-4-(4-(2-((1-(tert-butyl)-1H-pyrazol-4-yl)amino)-2-oxoethyl)-5-fluoro-2-methylphenoxy)quinoline-6-carboxamide] belongs < 2.5 nM; to `Cc1cc(CC(=O)Nc2cnn(C(C)(C)C)c2)c(F)cc1Oc1ccnc2ccc(C(=O)NC3CC3)cc12` [Compound 457, 4-(4-(2-((1-(tert-butyl)-1H-pyrazol-4-yl)amino)-2-oxoethyl)-5-fluoro-2-methylphenoxy)-N-cyclopropylquinoline-6-carboxamide], < 2.5 nM.

With `Cc1cc(CC(=O)Nc2cnn(C(C)(C)C)c2)c(F)cc1Oc1ccnc2ccc(C(=O)NC3(C)CC3)cc12` [Compound 458, 4-(4-(2-((1-(tert-butyl)-1H-pyrazol-4-yl)amino)-2-oxoethyl)-5-fluoro-2-methylphenoxy)-N-(1-methylcyclopropyl)quinoline-6-carboxamide], the IC50 on RIPK2 enzyme was < 2.5 nM. In the case of `CSc1ccc2nccc(Oc3cc(F)c(CC(=O)Nc4cnn(C(C)(C)C)c4)cc3C)c2c1` [Compound 459, N-(1-(tert-butyl)-1H-pyrazol-4-yl)-2-(2-fluoro-5-methyl-4-((6-(methylthio)quinolin-4-yl)oxy)phenyl)acetamide], on RIPK2 enzyme, the IC50 was < 2.5 nM. For `Cc1cc(CC(=O)Nc2cnn(C(C)(C)C)c2)c(F)cc1Oc1ccnc2ccc(-c3nnccc3C)cc12` [Compound 460, N-(1-(tert-butyl)-1H-pyrazol-4-yl)-2-(2-fluoro-5-methyl-4-((6-(4-methylpyridazin-3-yl)quinolin-4-yl)oxy)phenyl)acetamide], the IC50 on RIPK2 enzyme was < 2.5 nM.
